Test results published in patent publication US9701638B2, “Therapeutic hydroxyquinolones” (RUTGERS, THE STATE UNIVERSITY OF NEW JERSEY, priority 2012, dated 2017).

Biological target: Pandemic 2009 H1N1 influenza A endonuclease (PAN domain, residues 1-204) (Influenza A virus (strain swl A/California/04/2009 H1N1), UniProt C3W5S0)
Test: Endonuclease assay (FAM/MGBNFQ fluorescent probe cleavage by PAN)
Format: biochemical, influenza A virus (pandemic 2009 H1N1)
Conditions: endonuclease inhibition; 25 nM endonuclease, 50 nM probe, 37 degrees Celsius, fluorescence change over time
From the text: A TaqMan-like oligonucleotide was used containing a 6-carboxy-fluorescein (FAM) fluorophore at the 5′-end followed by 19 nucleotides and a minor groove binding non-fluorescent quencher (MGBNFQ, Applied Biosystems) at the 3′-end. When excited by light at a wavelength of 488 nm, MGBNFQ quenches the fluorescence of FAM via fluorescence resonance energy transfer. If the endonuclease cleaves the oligonucleotide, the quencher is no longer coupled to the fluorophore, and therefore, FAM fluoresces. This assay can be performed in a high-throughput (e.g. 96 well plate) format.
The reaction mixture is set up as a master mix with the buffer, probe, and protein on ice. […] Varioskan Fluorometer (Thermo Scientific), set to an excitation of 488 nm and emission of 518 nm, is used to measure the fluorescence of the samples at 37 degrees Celsius. Fluorescence is measured at various time points (5, 120, and 240 minutes) during the 37 degrees Celsius incubation. Activity/inhibition is calculated based on the change in fluorescence over time using Prism Graphpad non-linear regression analysis.

| SMILES | IC50 [µM] |
| --- | --- |
| O=c1[nH]c2ccccc2c(Br)c1O [Example 2, 4-bromo-3-hydroxyquinolin-2(1H)-one] | 53 |
| O=c1[nH]c2cccc(Br)c2cc1O [Example 3, 5-bromo-3-hydroxyquinolin-2(1H)-one] | 12.2 |
| O=c1[nH]c2ccc(Br)cc2cc1O [Example 4, 6-bromo-3-hydroxyquinolin-2(1H)-one] | 7.4 |
| O=c1[nH]c2cc(Br)ccc2cc1O [Example 5, 7-bromo-3-hydroxyquinolin-2(1H)-one] | 7.6 |
| O=c1[nH]c2c(Br)cccc2cc1O [Example 6, 8-bromo-3-hydroxyquinolin-2(1H)-one] | 10.6 |
| O=c1[nH]c2ccccc2c(-c2ccc(F)cc2)c1O [Example 7] | 10.8 |
| O=c1[nH]c2cccc(-c3ccc(F)cc3)c2cc1O [Example 8, 5-(4-fluorophenyl)-3-hydroxyquinolin-2(1H)-one] | 3.3 |
| O=c1[nH]c2ccc(-c3ccc(F)cc3)cc2cc1O [Example 9, 6-(4-fluorophenyl)-3-hydroxyquinolin-2(1H)-one] | 0.56 |
| O=c1[nH]c2cc(-c3ccc(F)cc3)ccc2cc1O [Example 10, 7-(4-fluorophenyl)-3-hydroxyquinolin-2(1H)-one] | 0.56 |
| O=c1[nH]c2c(-c3ccc(F)cc3)cccc2cc1O [Example 11, 8-(4-fluorophenyl)-3-hydroxyquinolin-2(1H)-one] | 4.7 |
| O=c1[nH]c2cc(-c3ccc(F)cc3)ccc2c(Br)c1O [Example 12, 4-bromo-7-(4-fluorophenyl)-3-hydroxyquinolin-2(1H)-one] | 1.1 |
| O=c1[nH]c2ccccc2c(-c2ccccc2)c1O [Example 13, 4-Phenyl-3-hydroxyquinolin-2(1H)-one] | > 20 |
| Cc1c(O)c(=O)[nH]c2ccccc12 [Example 14, 4-Methyl-3-hydroxyquinolin-2(1H)— one] | > 100 |
| O=c1[nH]c2cc(-c3ccc(F)cc3)ccc2c(-c2ccccc2)c1O [Example 15, 4-Phenyl-7-(4-fluorophenyl)-3-hydroxyquinolin-2(1H)-one] | 2 |
| Cc1c(O)c(=O)[nH]c2cc(-c3ccc(F)cc3)ccc12 [Example 16] | 13.2 |
